Experiments:
[1] = molecular target: T1, Proline-rich Tyrosine kinase (FAK2/PYK2) (Homo sapiens, UniProt Q14289); test: Recombinant kinase ELISA assay, PYK2; type: biochemical; settings: recombinant human enzyme; ELISA-based assay, poly(Glu,Tyr 4:1) substrate
T1 construct: PYK2 (2-1006; BC042599); 6xHN (N); made in house; host or cells: baculovirus, Sf9 insect cells
Description: (§1) Full details for the generation of recombinant human KIT intracellular domain and other protein kinases (including Lyn, platelet derived growth factor receptor β, epidermal growth factor receptor, fibroblast growth factor receptor 1, Src, HCK, PYK, FES, Btk, Bmx, c-Ret, c-Fms, Syk, and c-Met) are provided in the Supplemental Methods (see Supporting Information; Methods S1). Experiments on ABL1, Akt1, protein kinase C-α, insulin-like growth factor receptor 1, and Pim1 were carried out by Proqinase (Germany). All other recombinant protein kinases were performed in-house using an enzyme-linked immunoassay; experimental details are provided in the Supplemental Methods (see Supporting Information; Methods S1).
(§2) The sequences encoding PDGF receptor β (residues 554–1106; GenBank accession no. BC032224), Lyn B (2–583; accession no. BC059394), fibroblast growth factor receptor 1 (572–959; accession no. BC018128), Src (2–536; accession no. BC011566), Btk (2–659; accession no. BC109079), Bmx (2–675; accession no. BC016652), c-Ret (713–1114; accession no. BC004257), c-Fms (538–972; BC047531), Syk (2–612; BC011399), Hck (2-526; accession no. BC014435), Fes (2-822; accession no. BC035357), PYK2 (2-1006; accession no. BC042599) and c-Met (949–1398; accession no. lifeseq3489592) were amplified by PCR from IMAGE cDNA clones purchased from Openbiosystems. […]

[2] = system: Salmonella typhimurium and Escherichia coli; test: Bacterial reverse mutation test; settings: our unpublished results
Jak2 = Jak2 (Homo sapiens, UniProt O60674); test: Ba/F3 cell proliferation (WST-1), Jak2; settings: Ba/F3 cells expressing the enzyme, read-out: Cell-based assay IC50, Jak2
Chain of Jak2 (O60674 whole entry): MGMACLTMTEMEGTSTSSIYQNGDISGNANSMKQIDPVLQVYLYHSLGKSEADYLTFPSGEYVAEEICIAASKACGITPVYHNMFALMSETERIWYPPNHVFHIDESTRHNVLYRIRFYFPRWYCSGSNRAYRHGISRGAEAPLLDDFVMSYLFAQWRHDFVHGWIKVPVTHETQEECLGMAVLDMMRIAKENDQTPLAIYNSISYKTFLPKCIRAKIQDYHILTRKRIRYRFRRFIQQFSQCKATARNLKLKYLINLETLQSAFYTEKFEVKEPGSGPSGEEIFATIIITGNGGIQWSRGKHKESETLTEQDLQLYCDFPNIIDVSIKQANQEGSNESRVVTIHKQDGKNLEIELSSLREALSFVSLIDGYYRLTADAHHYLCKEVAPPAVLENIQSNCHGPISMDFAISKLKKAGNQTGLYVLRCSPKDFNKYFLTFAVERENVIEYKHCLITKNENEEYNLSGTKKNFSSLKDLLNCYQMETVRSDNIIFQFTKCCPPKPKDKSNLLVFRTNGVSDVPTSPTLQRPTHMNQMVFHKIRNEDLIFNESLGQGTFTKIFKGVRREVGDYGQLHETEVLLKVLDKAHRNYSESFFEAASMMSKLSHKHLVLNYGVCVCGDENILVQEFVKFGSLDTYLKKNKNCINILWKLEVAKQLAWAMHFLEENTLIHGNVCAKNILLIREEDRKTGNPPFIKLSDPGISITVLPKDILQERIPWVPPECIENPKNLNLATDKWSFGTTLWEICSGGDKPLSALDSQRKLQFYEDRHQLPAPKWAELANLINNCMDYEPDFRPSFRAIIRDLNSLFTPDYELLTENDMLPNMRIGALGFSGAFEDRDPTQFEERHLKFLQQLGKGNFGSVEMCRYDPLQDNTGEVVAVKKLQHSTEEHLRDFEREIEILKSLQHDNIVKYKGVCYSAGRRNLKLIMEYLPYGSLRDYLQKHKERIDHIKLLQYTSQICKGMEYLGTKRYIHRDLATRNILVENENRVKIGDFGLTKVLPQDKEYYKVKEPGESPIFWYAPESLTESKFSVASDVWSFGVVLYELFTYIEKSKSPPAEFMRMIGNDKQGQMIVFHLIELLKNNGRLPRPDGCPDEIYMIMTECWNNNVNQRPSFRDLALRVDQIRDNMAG

[3] = system: mastocytoma cell lines carrying KIT juxtamembrane mutants; test: Proliferation of mastocytoma cell lines carrying KIT juxtamembrane mutants (summary); type: cell-based; settings: summary over cell lines
c-Ret [4] = molecular target: T2, c-Ret (Homo sapiens, UniProt P07949); test: Recombinant kinase ELISA assay, c-Ret; type: biochemical; settings: recombinant human enzyme; ELISA-based assay, poly(Glu,Tyr 4:1) substrate
T2 construct: c-Ret (713–1114; BC004257); 6xHN (N); made in house; host or cells: baculovirus, Sf9 insect cells
Description: as §1, §2
T2 sequence (P07949 713-1072 isoform P07949-2): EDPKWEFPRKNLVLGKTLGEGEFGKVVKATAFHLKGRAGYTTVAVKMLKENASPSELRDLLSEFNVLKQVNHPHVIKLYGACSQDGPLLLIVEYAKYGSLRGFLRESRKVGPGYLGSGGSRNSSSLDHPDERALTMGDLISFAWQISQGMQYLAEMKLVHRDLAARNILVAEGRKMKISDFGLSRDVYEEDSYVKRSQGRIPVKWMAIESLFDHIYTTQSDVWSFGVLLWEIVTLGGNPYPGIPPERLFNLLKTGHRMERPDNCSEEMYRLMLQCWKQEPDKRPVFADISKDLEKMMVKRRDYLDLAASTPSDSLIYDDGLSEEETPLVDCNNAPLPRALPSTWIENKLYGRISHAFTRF

Akt1 = molecular target: T3, Akt1 (Homo sapiens, UniProt P31749); test: Recombinant kinase screen (Proqinase), Akt1; type: biochemical; settings: recombinant human enzyme; single experiment, kinase screen by Proqinase
T3 construct: purchased Proqinase (Germany)
T3 sequence (P31749 whole entry): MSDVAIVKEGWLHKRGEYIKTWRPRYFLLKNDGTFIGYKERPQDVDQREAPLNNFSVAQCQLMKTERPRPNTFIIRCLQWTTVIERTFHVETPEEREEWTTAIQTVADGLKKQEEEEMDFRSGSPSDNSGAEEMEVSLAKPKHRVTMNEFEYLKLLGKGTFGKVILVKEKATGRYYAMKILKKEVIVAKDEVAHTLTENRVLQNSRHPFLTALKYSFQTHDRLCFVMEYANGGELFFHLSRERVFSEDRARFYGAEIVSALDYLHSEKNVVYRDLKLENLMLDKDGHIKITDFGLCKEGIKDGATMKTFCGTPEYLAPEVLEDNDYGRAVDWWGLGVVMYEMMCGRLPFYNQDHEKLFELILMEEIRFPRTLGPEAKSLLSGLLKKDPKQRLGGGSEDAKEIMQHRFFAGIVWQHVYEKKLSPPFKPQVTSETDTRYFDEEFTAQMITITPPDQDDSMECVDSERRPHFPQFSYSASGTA
Description: as §1

VEGFR2 = VEGFR2 (Homo sapiens, UniProt P35968); test: Recombinant kinase ELISA assay, VEGFR2; type: biochemical; settings: recombinant human enzyme; ELISA-based assay, poly(Glu,Tyr 4:1) substrate
Chain of VEGFR2 (P35968 20-1356): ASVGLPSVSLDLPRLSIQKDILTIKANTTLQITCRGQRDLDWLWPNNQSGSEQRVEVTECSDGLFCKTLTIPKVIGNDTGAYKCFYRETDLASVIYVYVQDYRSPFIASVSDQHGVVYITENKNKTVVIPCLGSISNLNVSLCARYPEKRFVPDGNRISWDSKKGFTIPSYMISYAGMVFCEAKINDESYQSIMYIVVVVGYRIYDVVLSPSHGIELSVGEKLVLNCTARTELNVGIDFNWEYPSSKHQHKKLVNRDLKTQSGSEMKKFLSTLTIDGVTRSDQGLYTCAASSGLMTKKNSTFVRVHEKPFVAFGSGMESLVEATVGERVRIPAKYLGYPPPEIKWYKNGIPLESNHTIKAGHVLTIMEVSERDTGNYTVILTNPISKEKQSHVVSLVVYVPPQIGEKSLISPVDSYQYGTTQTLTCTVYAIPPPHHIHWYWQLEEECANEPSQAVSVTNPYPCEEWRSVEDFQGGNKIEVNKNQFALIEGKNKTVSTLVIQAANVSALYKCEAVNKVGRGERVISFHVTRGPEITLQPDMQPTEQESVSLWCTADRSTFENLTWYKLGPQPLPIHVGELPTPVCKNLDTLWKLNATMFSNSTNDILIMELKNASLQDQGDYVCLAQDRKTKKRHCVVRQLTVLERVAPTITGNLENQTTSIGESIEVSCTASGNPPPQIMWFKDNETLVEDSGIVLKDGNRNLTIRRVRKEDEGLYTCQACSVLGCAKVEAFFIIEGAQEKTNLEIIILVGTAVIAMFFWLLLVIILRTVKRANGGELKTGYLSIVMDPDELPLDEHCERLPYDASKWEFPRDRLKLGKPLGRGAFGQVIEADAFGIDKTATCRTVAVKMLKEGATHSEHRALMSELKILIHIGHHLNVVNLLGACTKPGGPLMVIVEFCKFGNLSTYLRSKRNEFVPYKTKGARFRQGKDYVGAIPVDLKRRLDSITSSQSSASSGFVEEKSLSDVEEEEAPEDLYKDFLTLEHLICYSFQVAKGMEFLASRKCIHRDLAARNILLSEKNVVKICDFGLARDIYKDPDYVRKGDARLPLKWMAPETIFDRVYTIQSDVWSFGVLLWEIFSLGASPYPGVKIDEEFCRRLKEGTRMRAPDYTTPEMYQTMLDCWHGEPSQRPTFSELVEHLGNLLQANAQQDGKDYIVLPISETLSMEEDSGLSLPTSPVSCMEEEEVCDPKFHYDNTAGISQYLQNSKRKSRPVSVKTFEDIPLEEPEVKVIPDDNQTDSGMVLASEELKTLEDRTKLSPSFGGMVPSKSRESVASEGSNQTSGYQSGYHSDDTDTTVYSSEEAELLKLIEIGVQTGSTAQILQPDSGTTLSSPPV
Description: as §1

mouse lymphoma = test: Mouse lymphoma assay; type: cell-based; settings: our unpublished results
Jak1 = molecular target: T4, Jak1 (Homo sapiens, UniProt P23458); test: Ba/F3 cell proliferation (WST-1), Jak1; settings: Ba/F3 cells expressing the enzyme, read-out: Cell-based assay IC50, Jak1
T4 construct: expressed in transfected cells; host or cells: Ba/F3

[5] = molecular target: T5, Epidermal growth factor receptor (Homo sapiens, UniProt P00533); test: Ba/F3 cell proliferation (WST-1), EGFR; settings: Ba/F3 cells expressing the enzyme, read-out: Cell-based assay IC50, Epidermal growth factor receptor
c-Fms = molecular target: T6, c-Fms (Homo sapiens, UniProt P07333); test: Ba/F3 cell proliferation (WST-1), c-Fms; settings: Ba/F3 cells expressing the enzyme, read-out: Cell-based assay IC50, c-Fms
T6 construct: expressed in transfected cells; host or cells: Ba/F3 (general description; not repeated for this kinase)

[6] = molecular target: T5, Epidermal growth factor receptor; test: Recombinant kinase ELISA assay, EGFR; type: biochemical; parameters: The cDNA encoding the EGF receptor (664–1210); 6xHN (N); made in house; host or cells: baculovirus, Sf9 insect cells; settings: recombinant human enzyme; ELISA-based assay, poly(Glu,Tyr 4:1) substrate
Description: as §1
A 96-well microtitre plate (Immulon 2HB; ThermoLifeScience, Finland) was coated overnight with 0.25 mg/ml poly(Glu,Tyr 4:1), rinsed twice with 250 µl of washing buffer (10 mM phosphate-buffered saline [pH 7.4] and 0.05% Tween 20) and dried for 2 hours at room temperature. […] Reactions were initiated upon introduction of the enzyme and terminated with the addition of one reaction volume (50 μl) of 100 mM EDTA per 5 M urea mix. […] The final reaction product was quantified by spectrophotometry at 450 nm.

c-Ret [7] = molecular target: T7, c-Ret (Homo sapiens, UniProt P07949); test: Ba/F3 cell proliferation (WST-1), c-Ret; settings: Ba/F3 cells expressing the enzyme, read-out: Cell-based assay IC50, c-Ret
T7 construct: expressed in transfected cells; host or cells: Ba/F3 (general description; not repeated for this kinase)

TrkB = TrkB (Homo sapiens, UniProt Q16620); settings: read-out: Cell-based assay IC50, TrkB; Ba/F3 cells expressing the enzyme; cell proliferation, WST-1
Chain of TrkB (Q16620 32-822, species assumed): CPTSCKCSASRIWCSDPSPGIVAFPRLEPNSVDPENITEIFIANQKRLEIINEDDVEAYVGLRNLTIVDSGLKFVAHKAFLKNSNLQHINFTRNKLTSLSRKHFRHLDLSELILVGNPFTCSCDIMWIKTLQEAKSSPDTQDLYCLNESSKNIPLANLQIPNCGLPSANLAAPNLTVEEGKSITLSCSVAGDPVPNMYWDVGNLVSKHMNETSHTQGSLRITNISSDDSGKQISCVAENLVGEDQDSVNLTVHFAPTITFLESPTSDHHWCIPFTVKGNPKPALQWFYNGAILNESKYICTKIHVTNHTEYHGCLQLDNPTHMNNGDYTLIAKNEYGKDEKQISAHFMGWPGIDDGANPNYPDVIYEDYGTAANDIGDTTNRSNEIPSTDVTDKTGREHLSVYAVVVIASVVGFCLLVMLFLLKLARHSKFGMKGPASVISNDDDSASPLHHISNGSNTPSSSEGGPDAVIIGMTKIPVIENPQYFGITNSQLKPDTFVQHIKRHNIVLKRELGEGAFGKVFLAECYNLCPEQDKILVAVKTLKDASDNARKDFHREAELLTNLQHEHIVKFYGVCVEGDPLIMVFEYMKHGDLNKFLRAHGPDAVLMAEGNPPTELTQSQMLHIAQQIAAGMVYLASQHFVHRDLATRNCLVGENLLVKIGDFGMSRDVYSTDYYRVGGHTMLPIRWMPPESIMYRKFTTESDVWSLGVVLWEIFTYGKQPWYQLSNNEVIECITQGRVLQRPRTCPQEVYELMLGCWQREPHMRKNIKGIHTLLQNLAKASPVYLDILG

PDGFRβ = PDGFRβ (Homo sapiens, UniProt P09619); test: Recombinant kinase ELISA assay, PDGFRβ; type: biochemical; parameters: PDGF receptor β (residues 554–1106; BC032224); 6xHN (N); made in house; host or cells: baculovirus, Sf9 insect cells; settings: recombinant human enzyme; ELISA-based assay, poly(Glu,Tyr 4:1) substrate
Description: as §1

T1 sequence (Q14289 2-1006): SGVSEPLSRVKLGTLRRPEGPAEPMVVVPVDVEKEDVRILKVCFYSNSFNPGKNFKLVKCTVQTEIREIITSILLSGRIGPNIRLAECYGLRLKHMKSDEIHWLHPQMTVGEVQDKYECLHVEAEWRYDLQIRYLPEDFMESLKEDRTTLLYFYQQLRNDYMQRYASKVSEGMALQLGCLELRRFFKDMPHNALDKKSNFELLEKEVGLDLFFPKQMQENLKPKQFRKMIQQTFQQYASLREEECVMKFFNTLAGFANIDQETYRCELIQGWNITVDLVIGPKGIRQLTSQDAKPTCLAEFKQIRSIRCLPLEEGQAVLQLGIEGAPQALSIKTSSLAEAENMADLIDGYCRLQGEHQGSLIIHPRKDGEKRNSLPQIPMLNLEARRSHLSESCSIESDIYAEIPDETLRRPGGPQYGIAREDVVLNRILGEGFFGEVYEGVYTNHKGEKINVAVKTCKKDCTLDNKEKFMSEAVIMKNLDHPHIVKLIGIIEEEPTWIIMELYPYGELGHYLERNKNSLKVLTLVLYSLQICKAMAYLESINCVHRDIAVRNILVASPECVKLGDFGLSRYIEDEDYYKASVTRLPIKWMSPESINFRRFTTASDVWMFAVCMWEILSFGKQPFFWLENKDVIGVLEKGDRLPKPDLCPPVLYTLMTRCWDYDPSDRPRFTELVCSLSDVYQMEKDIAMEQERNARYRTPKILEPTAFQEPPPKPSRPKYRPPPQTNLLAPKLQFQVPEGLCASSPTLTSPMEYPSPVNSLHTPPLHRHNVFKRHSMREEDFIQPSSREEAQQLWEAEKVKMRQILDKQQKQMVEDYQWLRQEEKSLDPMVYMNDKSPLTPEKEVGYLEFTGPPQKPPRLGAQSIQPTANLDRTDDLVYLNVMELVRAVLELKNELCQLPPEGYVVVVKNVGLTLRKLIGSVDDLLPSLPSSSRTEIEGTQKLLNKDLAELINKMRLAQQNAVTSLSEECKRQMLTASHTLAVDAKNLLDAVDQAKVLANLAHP

CS(=O)(=O)O.CS(=O)(=O)O.Cc1ccc(NC(=O)c2ccc(CN3CCN(C)CC3)cc2)cc1Nc1nc(-c2cccnc2)cs1 [masitinib, 4-(4-methylpiperazin-1-ylmethyl)-N-[4-methyl-3-(4-pyridin-3ylthiazol-2-ylamino)phenyl]benzamide-mesylate methane sulfonic acid salt]
IC50 [1]: > 10 µM
mutagenicity in bacterial reverse mutation tests [2]: not mutagenic
IC50 (Jak2): 10 ± 0.8 µM
IC50 [3]: 0.01 to 0.03 µM
IC50 (c-Ret [4]): > 10 µM
IC50 (Akt1): > 10 µM
IC50 (VEGFR2): > 10 µM
mutagenicity in a mouse lymphoma assay (mouse lymphoma): not mutagenic
IC50 (Jak1): 8 ± 1.4 µM
IC50 [5]: 7 ± 0.8 µM
IC50 (c-Fms): 1 ± 0.03 µM
IC50 [6]: > 10 µM
IC50 (c-Ret [7]): 8 ± 1.2 µM
IC50 (TrkB): 7 ± 1.9 µM
IC50 (PDGFRβ): 0.8 ± 0.12 µM

— PMC2746281 (PLoS ONE, 2009)
